Read-outs that look alike come from different tables or passages of the source.
Assays:
[1] = acid dissociation constant; listed as tryptophane; cited from earlier work
[2] = cited from earlier work; for solubility change with alcohol (in words): alcohol present in aqueous solution; for solubility in water (in words): at the isoelectric point
[3] = solubility of L-tryptophan in an ethanol-aqueous solution (Referential Example 1); type: physicochemical; settings: pH 5.89, 20° to 75° C.
Procedure: The pH of the aqueous solution was adjusted to the isoelectric point (5.89), and the aqueous solution was prepared from distilled water and reagent grade ethanol. In FIG. 1, letters a, b, c and d represent the solubility curves of L-tryptophan for the ethanol solution of different compositions shown below. […]
a: Ethanol: 0 Distilled water: 100 (parts by volume) b: Ethanol: 30 Distilled water: 70 c: Ethanol: 50 Distilled water: 50 d: Ethanol: 70 Distilled water: 30

SMILES	solubility change with alcohol (in words) [2]	solubility in water (in words) [2]	further results
N[C@@H](Cc1c[nH]c2ccccc12)C(=O)O [L-tryptophan]	increase in solubility	sparingly soluble in water at the isoelectric point	pK1 [1]: 2.3; solubility by adjustment of pH only ([2]; pH not less than 11 or not more than 2): 8 to 10 wt. %; increase of solubility on raising solution temperature ([2]; solution temperature raised to 60° C.): ≤ 2%; solubility in water (in words) ([2]; listed as tryptophane): very low solubility in water; solubility, temperature dependence [3]: increases as the temperature goes up from 20 °C to 75 °C
CSCC[C@H](N)C(=O)O [methionine]		sparingly soluble in water at the isoelectric point	
C[C@H](N)C(=O)O [alanine]	decrease in solubility		
NCCCC[C@H](N)C(=O)O [lysine]		highly soluble in water	
N[C@@H](CSSC[C@H](N)C(=O)O)C(=O)O [cystine]		sparingly soluble in water at the isoelectric point	
N[C@@H](Cc1ccccc1)C(=O)O [phenylalanine]	increase in solubility		
